Active and inactive are the calls of the source.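 How the source made its calls: active means mean IC50 for reducing PEG3 promoter reporter signal at or below a set limit, with IC50 above the limit in both counter screens; inactive means the rest, including counter screen hits.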
How the values were obtained:
Assay in all cases: Peg3 promoter luciferase inhibitors, potency, dose response, cell-based, HeLa, CREF/GAPDH counter-screen panel (AID 624167)
PEG-3 [1] = biological target: PEG-3 (UniProt Q6IN02); details: HeLa PEG-Prom luciferase reporter, overnight, CREF/GAPDH counter-screens, mean of runs
Rat fibroblasts (CREF) = details: CREF/GAPDH counter-screens
PEG-3 [2] = details: HeLa PEG-Prom luciferase reporter, overnight, CREF/GAPDH counter-screens
[3] = run 1, dose range 1, individual replicate IC50 per panel
[4] = run 2, dose range 1, individual replicate IC50 per panel

Sequence of PEG-3 (UniProt Q6IN02) (Q6IN02 whole entry, looked up): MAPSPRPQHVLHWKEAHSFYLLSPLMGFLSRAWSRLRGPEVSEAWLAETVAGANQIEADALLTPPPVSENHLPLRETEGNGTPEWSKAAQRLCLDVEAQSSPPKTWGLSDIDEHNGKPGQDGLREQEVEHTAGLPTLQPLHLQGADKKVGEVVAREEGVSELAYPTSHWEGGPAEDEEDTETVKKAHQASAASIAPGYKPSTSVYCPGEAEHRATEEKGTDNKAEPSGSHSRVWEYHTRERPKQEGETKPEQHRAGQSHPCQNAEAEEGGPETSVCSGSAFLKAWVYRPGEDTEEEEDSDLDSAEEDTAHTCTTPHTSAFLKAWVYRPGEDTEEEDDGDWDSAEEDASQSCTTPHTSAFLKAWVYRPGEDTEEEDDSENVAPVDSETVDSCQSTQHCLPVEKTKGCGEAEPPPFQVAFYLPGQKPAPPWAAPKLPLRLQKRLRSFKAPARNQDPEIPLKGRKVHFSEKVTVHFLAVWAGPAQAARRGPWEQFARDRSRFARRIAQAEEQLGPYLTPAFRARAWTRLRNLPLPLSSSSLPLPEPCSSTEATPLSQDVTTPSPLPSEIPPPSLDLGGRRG

| SMILES | IC50 (PEG-3 [1]) | IC50 (Rat fibroblasts (CREF); mean of runs) | IC50 (Rat fibroblasts (CREF); [3]) | IC50 (Rat fibroblasts (CREF); [4]) | IC50 (PEG-3 [2]; [3]) | IC50 (PEG-3 [2]; [4]) |
| --- | --- | --- | --- | --- | --- | --- |
| Cc1cc(NC(c2cccnc2)c2ccc3cccnc3c2O)no1 (centres undefined) | 6130 nM | 5720 nM | 5650 nM | 5790 nM | 7220 nM | 5040 nM |
| CC(C)(C)C(=O)Nc1ccc(NC(=O)c2ccco2)nc1 | 2580 nM | 435 nM | 224 nM | 646 nM | 4900 nM | 246 nM |
| CC(C)(C)c1ccc(C(=O)O/N=C(\N)c2ccccn2)cc1 | inactive | 9840 nM | 9330 nM | 10300 nM | 367 nM | > 100000 nM |
| O=c1oc2ccccc2cc1-c1cn2ccccc2n1 | 2740 nM | 4470 nM | 2840 nM | 6100 nM | 2310 nM | 3170 nM |
| O=C(c1ccc(Cl)cc1)N1CCCCC(Sc2nnc(-c3ccc4c(c3)OCO4)o2)C1=O (centres undefined) | 2290 nM | 2250 nM | 3870 nM | 643 nM | 669 nM | 3910 nM |
| COc1cc(SC)ccc1C(=O)Nc1nc2ccccc2[nH]1 | inactive | 296 nM | 305 nM | 288 nM | 377 nM | > 100000 nM |
| COc1cc(SC)ccc1C(=O)Nc1ncc(C)s1 | 3900 nM | 1940 nM | 1580 nM | 2300 nM | 3020 nM | 4770 nM |
| CC1CCN(c2ccc(-c3cccs3)nn2)CC1 | 1820 nM | 341 nM | 316 nM | 366 nM | 2160 nM | 1480 nM |
| O=C1c2cccc3cc([N+](=O)[O-])cc(c23)C(=O)N1CCN1CCCC1 | 5570 nM | 4660 nM | 4170 nM | 5150 nM | 6200 nM | 4940 nM |
| Brc1ccc(N=Nc2ccc3ccccc3n2)cc1 | 6100 nM | 456 nM | 213 nM | 698 nM | 5750 nM | 6450 nM |
| Cc1ccc(-c2cc3c(N=O)c4ccccc4c-3n[nH]2)cc1 | 1030 nM | 18800 nM | 2730 nM | 34900 nM | 1200 nM | 860 nM |
| CCCn1c(C)cc(C(=O)CN2C(=O)c3ccccc3S2(=O)=O)c1C | 4030 nM | 6190 nM | 6320 nM | 6060 nM | 3240 nM | 4830 nM |
| O=C(COc1ccc(Cl)cc1Cl)Nc1ccccn1 | 930 nM | 904 nM | 795 nM | 1010 nM | 1270 nM | 594 nM |
| O=C(CNCCC1=CCCCC1)Nc1ccc(N2CCCCCC2)cc1 | 9980 nM | 16600 nM | 16500 nM | 16800 nM | 10600 nM | 9370 nM |
| Cc1cc(N2CCN(C)CC2)ccc1NC(=O)c1c2c(nc3ccccc13)CCN(Cc1ccccc1)C2 | 8920 nM | 3010 nM | 2440 nM | 3590 nM | 5600 nM | 12200 nM |
| COc1ccc(OCc2cccc(C(=O)O)c2)cc1 | 327 nM | 10500 nM | 10200 nM | 10800 nM | 263 nM | 390 nM |

The remaining compounds from weak to strong by IC50 (PEG-3 [1]), led by results:

| IC50 (PEG-3 [1]) | SMILES | IC50 (Rat fibroblasts (CREF); mean of runs) | IC50 (Rat fibroblasts (CREF); [3]) | IC50 (Rat fibroblasts (CREF); [4]) | IC50 (PEG-3 [2]; [3]) | IC50 (PEG-3 [2]; [4]) |
| --- | --- | --- | --- | --- | --- | --- |
| 8900 nM | COc1ccccc1CNCC(O)Cn1c2ccccc2c2ccccc21 (centres undefined) | 16200 nM | 16700 nM | 15700 nM | 10100 nM | 7690 nM |
| 6410 nM | CC(=O)N1CCCC(c2cc(C(=O)Nc3ccccc3)no2)C1 (centres undefined) | 9510 nM | 9260 nM | 9760 nM | 4870 nM | 7940 nM |
| 2110 nM | CC1CCN(c2ccc(-c3cccc(NC(=O)C(F)(F)F)c3)nn2)CC1 | 853 nM | 869 nM | 837 nM | 1840 nM | 2370 nM |
| 2080 nM | COc1ccc2c(c1)sc1nc(-c3ccccc3)cn12 | 403 nM | 323 nM | 484 nM | 2460 nM | 1700 nM |
| 1260 nM | O=C(Nc1nc2ccccc2[nH]1)c1ccccc1F | 1470 nM | 1260 nM | 1680 nM | 1130 nM | 1400 nM |
| 574 nM | COc1ccccc1C(=O)Nc1nc2ccccc2s1 | 489 nM | 348 nM | 631 nM | 515 nM | 633 nM |
| 557 nM | O=C(NCCc1ccccc1)c1ccc2c(c1)OCCCO2 | 589 nM | 374 nM | 803 nM | 466 nM | 647 nM |
| 473 nM | COc1ccc(-c2cc3nc(C)n(N)c(=O)c3s2)cc1 | 1090 nM | 1010 nM | 1160 nM | 657 nM | 288 nM |

Reference: PubChem BioAssay AID624167 (Sanford-Burnham Center for Chemical Genomics, 2012)
